Test results taken from patent US20100317625A1, “NOVEL SULFONAMIDOMETHYLP[…] BETA-LACTAMASE” (priority 2006, published 2010).
Values after ≈ are worked out from the molar mass of the structure shown.

Columns and labels:
[1] = tested on: CL 5701 (Pseudomonas aeruginosa; Pa AmpC); experiment: microbe, parasite or virus in culture; settings: read-out: Imipenem MIC
Source text: (§1) The assay determines the concentration of a β-lactamase inhibitor required to reduce the MIC of a β-lactam antibiotic by one-half, one-quarter, one-eighth, one-sixteenth and one-thirty-second against strains of bacteria normally resistant to the antibiotic in question. This is accomplished by titrating the inhibitor (BLI=beta-lactamase inhibitor) in a serial dilution across a microtiter plate while at the same time titrating the antibiotic (AB) in a serial dilution down the microtiter plate and then inoculating the plate with the bacterial strain in question and allowing the bacteria to grow up overnight. Each well in this microplate checkerboard contains a different combination of concentrations of the inhibitor and the antibiotic allowing a full determination of any synergy between the two.
(§2) 100 μL is serially diluted from row A to row G of each MIC 2000 plate. […] 100 μL is removed from each well in row G of each MIC 2000 plate. […] 100 μL is serially diluted from column 1 to column 11 of each MIC 2000 plate. […] Plates are left at 37° C. for about 20 hours and scored for growth by eye. […]
(§3) Plates are scored for growth in each well. End points (MICs) where there is no growth in each row are determined and the concentrations of AB and the test BLI at each of these growth negative wells are then used to determine levels of synergy.

[2] = tested on: CL 6188 (Acinetobacter baumanii; Oxa40); experiment: microbe, parasite or virus in culture; settings: Acinetobacter baumannii, read-out: Imipenem MIC
Source text: as §1, §2, §3

MIC [1]: 20 µg/mL (≈ 66.8 µM)
MIC [2]: 128 µg/mL (≈ 428 µM)
SMILES: C[C@@H](O)[C@H]1C(=O)N2C(C(=O)O)=C(SCCN=CN)C[C@H]12 [Imipenem]
